The source made the active and inactive calls.
What was measured:
Phospholipase A2 = Phospholipase A2 (Homo sapiens, UniProt P04054); type: functional;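 also: confirmatory dose-response counterscreen on phospholipase A2, testing hits that came from an ultra-high-throughput screen for ATG4B inhibitors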
Cysteine protease ATG4B = target: T1, Cysteine protease ATG4B (Homo sapiens, UniProt Q9Y4P1); type: functional;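 also: Fluorescence-based dose-response confirmation assay measuring inhibition of ATG4B activity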
T1 sequence (Q9Y4P1 whole entry): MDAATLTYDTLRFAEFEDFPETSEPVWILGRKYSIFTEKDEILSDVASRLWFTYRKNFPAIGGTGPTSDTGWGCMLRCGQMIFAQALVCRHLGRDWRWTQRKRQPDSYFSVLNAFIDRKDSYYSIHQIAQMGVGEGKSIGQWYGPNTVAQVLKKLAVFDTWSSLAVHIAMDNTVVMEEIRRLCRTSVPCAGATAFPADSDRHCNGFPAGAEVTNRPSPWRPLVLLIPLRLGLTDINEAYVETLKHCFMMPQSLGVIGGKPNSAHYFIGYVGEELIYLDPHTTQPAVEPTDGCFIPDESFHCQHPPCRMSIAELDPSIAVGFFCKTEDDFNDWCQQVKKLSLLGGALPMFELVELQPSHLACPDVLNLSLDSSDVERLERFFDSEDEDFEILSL

[1] = target: T2, Alkaline phosphatase, tissue-nonspecific isozyme (Homo sapiens, UniProt P05186); experiment: TNAP enzyme inhibition by screening hits, dose response, selectivity assay for mouse IAP inhibitor project, biochemical, human TNAP, uHTS hits (AID 488906); type: functional
T2 sequence (P05186 whole entry): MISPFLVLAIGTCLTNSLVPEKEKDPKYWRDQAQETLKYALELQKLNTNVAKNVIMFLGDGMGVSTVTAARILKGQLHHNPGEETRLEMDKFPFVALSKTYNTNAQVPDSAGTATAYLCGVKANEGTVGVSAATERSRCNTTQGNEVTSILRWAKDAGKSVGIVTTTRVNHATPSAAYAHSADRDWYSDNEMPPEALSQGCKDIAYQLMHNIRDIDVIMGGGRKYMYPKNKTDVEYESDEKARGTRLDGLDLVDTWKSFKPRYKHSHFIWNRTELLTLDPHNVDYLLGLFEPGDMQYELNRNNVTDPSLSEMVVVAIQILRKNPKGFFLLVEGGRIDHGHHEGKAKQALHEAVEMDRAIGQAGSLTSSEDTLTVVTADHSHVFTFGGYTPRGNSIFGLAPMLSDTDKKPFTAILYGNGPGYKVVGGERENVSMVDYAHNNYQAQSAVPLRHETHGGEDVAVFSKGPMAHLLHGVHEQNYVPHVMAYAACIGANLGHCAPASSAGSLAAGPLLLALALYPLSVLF

[2] = target: Intestinal-type alkaline phosphatase (Mus musculus, UniProt P24822); experiment: PubChem AID 488785; type: functional
[3] = target: T3, Intestinal-type alkaline phosphatase (Homo sapiens, UniProt P09923); experiment: inhibition of human intestinal alkaline phosphatase – biochemical, dose response (AID 488876); type: functional
Large T antigen = Large T antigen (Simian virus 40, UniProt P03070); type: functional, Betapolyomavirus macacae;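 also: Confirmatory-stage PubChem screen for compounds that inhibit SV40 T antigen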
[4] = target: T3, Intestinal-type alkaline phosphatase; experiment: activation of human intestinal alkaline phosphatase – biochemical, dose response (AID 488873); type: functional
HEK293 [5] = experiment: cells; conditions: Homo sapiens
HEK293 [6] = experiment: cells; conditions: Homo sapiens; remark: listed apart in the source
[7] = target: 5-hydroxytryptamine receptor 5A (Homo sapiens, UniProt P47898); experiment: Counterscreen for agonists of OPRM1-OPRD1 heterodimerization: luminescence-based cell-based high throughput dose response assay to identify agonists of 5-hydroxytryptamine (serotonin) 5A receptor (HTR5A). [Related pubchem assays (depositor defined):AID504326, AID504355, AID504692, AID504904, AID504905]; type: functional
Mu-type opioid receptor = Mu-type opioid receptor (Homo sapiens, UniProt P35372); experiment: Counterscreen for agonists of heterodimerization of the mu 1 (OPRM1) and delta 1 (OPRD1) opioid receptors: Luminescence-based cell-based high throughput dose response assay to identify agonists of OPRM1 homodimerization.; type: functional;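 also: U2OS cells expressing OPRM1 and beta-arrestin as split beta-galactosidase partners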
[8] = target: Delta-type opioid receptor (Homo sapiens, UniProt P41143); experiment: Counterscreen for agonists of heterodimerization of the mu 1 (OPRM1) and delta 1 (OPRD1) opioid receptors: Luminescence-based cell-based high throughput dose response assay to identify agonists of OPRD1 homodimerization. [Related pubchem assays (depositor defined):AID504326, AID504355, AID504692, AID504904, AID504905]; type: functional
[9] = viability of uninfected HEp-2 cells – cell-based, HTS, cytotoxicity control for RSV inhibitor project, dose response (AID 2410); type: functional; conditions: human respiratory syncytial virus
[10] = target: T4, Carboxy-terminal domain RNA polymerase II polypeptide A small phosphatase 1 (Homo sapiens, UniProt Q9GZU7); experiment: CTDSP1 inhibitors, concentration-response, biochemical, absorbance readout, ultra-high-throughput screen actives (AID 540297); type: functional
T4 sequence (Q9GZU7 whole entry): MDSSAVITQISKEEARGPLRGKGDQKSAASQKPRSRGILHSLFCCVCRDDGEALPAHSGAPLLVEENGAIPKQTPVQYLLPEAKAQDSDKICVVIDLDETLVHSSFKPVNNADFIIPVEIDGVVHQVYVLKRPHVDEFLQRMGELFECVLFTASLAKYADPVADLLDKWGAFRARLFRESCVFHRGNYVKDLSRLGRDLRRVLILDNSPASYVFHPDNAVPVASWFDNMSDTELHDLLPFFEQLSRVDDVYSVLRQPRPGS

[11] = target: Induced myeloid leukemia cell differentiation protein Mcl-1 (Homo sapiens, UniProt Q07820); type: functional
[12] = target: T5, Calpain-2 catalytic subunit (Sus scrofa, UniProt P43367); experiment: m-calpain protease blockers, concentration series – biochemical, fluorogenic peptide substrate, dose response (AID 1420); type: functional
T5 sequence (P43367 whole entry): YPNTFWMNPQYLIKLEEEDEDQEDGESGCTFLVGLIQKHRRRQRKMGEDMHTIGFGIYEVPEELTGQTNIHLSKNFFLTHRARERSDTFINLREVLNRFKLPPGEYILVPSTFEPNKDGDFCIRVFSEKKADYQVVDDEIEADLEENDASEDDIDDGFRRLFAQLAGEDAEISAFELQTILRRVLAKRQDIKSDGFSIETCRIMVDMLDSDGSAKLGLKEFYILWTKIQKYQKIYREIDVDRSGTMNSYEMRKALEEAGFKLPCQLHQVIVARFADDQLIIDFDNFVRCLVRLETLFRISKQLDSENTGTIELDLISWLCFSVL

Escherichia coli = experiment: microbe, parasite or virus in culture
Streptococcus = experiment: GAS UMAA2166 growth inhibition – luminescence, BacTiterGlo, counter-screen for streptokinase expression inhibitor project, dose response (AID 1915); type: functional, organism-based;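 also: potency for reduction of bacterial viability or growth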
Streptokinase A = target: T6, Streptokinase A (Streptococcus pyogenes serotype M1, UniProt P10520); experiment: viability-normalized secreted streptokinase activity reduction – plasminogen activation absorbance, OD405, dose response (AID 1914); type: functional, Streptococcus pyogenes M1 GAS;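 also: secreted streptokinase activity via plasminogen activation per viability signal from cell pellet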
T6 sequence (P10520 whole entry): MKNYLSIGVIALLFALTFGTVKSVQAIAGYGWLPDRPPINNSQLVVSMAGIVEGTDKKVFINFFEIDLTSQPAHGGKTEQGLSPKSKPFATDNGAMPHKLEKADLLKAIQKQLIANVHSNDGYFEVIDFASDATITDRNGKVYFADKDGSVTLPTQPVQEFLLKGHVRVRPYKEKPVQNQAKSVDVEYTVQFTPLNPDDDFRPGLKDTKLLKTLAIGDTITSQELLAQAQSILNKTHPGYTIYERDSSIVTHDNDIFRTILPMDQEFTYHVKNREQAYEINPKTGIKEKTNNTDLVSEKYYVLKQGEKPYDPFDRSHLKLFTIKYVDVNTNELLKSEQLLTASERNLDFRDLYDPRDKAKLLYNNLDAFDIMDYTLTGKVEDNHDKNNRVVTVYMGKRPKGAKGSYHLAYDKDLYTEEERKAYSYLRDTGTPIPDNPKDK

[13] = test system: Streptococcus sp. 'group A'; experiment: Streptococcus pyogenes SK(-)GAS viability under kanamycin – luminescence, BacTiterGlo, confirmation, counter-screen for streptokinase expression inhibitor project, dose response (AID 1900); type: functional, organism-based
[14] = target: T7, Type-1 angiotensin II receptor (Homo sapiens, UniProt P30556); experiment: antagonism of angiotensin II type 1 receptor – cell-based, uHTS hits, selectivity assay for APJ receptor antagonist project, dose response (AID 463214); type: functional;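 also: antagonist potency against angiotensin II stimulated AT1 response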
T7 sequence (P30556 whole entry): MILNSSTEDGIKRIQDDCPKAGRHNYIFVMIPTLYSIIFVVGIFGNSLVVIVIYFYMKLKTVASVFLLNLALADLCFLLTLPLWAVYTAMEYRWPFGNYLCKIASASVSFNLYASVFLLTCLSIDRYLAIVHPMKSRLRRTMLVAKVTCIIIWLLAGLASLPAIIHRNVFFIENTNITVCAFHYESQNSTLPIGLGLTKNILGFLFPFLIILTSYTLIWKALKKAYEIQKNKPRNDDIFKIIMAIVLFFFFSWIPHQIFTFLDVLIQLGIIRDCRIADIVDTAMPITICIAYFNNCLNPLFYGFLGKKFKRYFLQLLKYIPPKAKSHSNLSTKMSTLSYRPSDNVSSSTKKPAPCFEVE

[15] = target: Heat shock protein HSP 90-alpha (Homo sapiens, UniProt P07900); type: functional, organism-based
Beta-galactosidase = Beta-galactosidase (Escherichia coli, UniProt Q8VNN2); experiment: PubChem AID 485352; type: functional
[16] = target: Dual specificity tyrosine-phosphorylation-regulated kinase 1A (Rattus norvegicus, UniProt Q63470); type: biochemical, Homo sapiens
[17] = target: Cyclin-dependent kinase 5/CDK5 activator 1 (Homo sapiens, UniProt Q00535); experiment: blockade of human CDK5 activity – biochemical, cherry-picked samples, set 2, dose response (AID 504545)
[18] = Luminescence Cell-Based Dose Retest to Confirm Inhibitors of Cancer Stem Cells. [Related pubchem assays (depositor defined):AID2717, AID2721]; type: functional; conditions: Homo sapiens
[19] = viability loss of HMLE_sh_eGFP cells – cell-based, luminescence, counter-screen for HMLE_sh_ECad selective toxicity project, dose response (AID 463074); type: functional, Homo sapiens;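 also: HMLE human mammary epithelial cells expressing control shRNA against eGFP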

Sequence of Phospholipase A2 (P04054 whole entry): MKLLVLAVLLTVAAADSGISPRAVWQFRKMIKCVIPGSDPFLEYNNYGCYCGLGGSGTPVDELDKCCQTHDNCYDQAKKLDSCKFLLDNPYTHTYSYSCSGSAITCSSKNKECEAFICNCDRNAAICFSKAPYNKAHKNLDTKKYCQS
Sequence of Beta-galactosidase (Q8VNN2 whole entry): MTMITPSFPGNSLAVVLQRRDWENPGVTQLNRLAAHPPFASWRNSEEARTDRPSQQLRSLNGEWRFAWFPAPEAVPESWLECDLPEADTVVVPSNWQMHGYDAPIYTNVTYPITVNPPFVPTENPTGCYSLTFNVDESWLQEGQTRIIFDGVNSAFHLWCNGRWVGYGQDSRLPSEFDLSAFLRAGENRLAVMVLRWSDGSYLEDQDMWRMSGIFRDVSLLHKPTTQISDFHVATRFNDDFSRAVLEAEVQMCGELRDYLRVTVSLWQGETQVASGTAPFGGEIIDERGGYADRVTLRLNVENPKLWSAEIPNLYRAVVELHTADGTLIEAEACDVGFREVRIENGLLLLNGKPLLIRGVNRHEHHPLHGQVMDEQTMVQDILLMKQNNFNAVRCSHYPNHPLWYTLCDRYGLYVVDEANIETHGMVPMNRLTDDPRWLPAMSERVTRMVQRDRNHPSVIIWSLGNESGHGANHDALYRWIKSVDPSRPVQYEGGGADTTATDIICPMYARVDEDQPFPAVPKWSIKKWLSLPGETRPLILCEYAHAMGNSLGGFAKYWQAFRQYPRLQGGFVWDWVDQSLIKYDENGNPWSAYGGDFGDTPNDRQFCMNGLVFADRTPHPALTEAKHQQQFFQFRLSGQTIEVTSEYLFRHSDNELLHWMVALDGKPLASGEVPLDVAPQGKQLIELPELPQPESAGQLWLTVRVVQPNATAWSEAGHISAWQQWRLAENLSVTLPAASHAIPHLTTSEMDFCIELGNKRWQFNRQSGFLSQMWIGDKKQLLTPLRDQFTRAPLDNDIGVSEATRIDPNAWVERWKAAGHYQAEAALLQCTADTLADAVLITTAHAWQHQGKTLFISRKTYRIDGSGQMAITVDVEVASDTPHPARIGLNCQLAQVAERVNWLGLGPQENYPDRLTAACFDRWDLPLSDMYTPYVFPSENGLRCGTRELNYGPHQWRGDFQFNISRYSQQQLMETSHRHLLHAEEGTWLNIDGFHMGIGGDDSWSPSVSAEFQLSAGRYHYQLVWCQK
Sequence of Delta-type opioid receptor (P41143 whole entry): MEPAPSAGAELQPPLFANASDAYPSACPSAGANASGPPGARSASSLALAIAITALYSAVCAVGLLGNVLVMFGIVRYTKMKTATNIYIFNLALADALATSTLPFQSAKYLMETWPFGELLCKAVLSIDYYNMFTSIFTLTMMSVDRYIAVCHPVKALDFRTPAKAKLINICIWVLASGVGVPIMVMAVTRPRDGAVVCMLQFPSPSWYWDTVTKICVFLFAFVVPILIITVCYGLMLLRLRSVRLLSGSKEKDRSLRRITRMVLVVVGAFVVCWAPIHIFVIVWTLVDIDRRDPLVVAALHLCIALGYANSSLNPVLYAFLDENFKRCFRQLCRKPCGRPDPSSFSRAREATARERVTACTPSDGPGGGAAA
Sequence of 5-hydroxytryptamine receptor 5A (P47898 whole entry): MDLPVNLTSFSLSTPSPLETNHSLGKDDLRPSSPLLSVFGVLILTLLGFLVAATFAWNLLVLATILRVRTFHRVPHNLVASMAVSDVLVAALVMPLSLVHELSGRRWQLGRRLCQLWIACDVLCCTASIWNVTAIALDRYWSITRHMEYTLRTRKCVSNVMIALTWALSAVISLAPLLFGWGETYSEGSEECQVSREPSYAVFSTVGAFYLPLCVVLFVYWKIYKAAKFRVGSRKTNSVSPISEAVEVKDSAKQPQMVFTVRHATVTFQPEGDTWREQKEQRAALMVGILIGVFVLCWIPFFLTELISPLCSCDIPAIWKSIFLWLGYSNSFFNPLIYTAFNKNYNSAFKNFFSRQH
T3 sequence (P09923 whole entry): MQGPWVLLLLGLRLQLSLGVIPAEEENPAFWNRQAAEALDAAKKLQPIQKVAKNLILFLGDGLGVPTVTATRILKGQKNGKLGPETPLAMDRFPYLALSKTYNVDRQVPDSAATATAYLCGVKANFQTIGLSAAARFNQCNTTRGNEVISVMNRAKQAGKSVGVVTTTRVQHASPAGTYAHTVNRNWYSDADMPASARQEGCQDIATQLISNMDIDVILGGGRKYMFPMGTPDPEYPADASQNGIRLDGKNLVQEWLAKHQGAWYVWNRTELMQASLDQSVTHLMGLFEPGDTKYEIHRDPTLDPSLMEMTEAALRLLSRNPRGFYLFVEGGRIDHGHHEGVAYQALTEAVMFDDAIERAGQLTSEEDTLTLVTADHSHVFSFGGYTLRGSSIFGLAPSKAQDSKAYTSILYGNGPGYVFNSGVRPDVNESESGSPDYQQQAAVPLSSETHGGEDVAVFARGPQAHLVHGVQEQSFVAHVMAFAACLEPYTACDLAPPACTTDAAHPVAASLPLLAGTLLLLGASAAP
Sequence of Intestinal-type alkaline phosphatase (Mus musculus, UniProt P24822) (P24822 whole entry): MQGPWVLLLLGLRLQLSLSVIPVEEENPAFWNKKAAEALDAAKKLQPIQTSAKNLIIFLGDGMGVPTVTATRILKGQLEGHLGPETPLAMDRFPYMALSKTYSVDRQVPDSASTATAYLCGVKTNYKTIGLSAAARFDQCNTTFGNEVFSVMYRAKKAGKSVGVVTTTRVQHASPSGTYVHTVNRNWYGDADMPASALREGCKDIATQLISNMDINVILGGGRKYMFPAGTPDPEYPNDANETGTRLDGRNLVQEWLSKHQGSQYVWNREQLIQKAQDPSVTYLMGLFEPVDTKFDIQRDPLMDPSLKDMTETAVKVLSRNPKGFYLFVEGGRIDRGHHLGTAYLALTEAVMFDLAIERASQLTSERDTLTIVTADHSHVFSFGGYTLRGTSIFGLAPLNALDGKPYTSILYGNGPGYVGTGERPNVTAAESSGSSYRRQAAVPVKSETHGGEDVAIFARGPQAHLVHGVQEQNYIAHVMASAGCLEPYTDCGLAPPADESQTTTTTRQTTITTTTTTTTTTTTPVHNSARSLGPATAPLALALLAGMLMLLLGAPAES
Sequence of Mu-type opioid receptor (P35372 whole entry): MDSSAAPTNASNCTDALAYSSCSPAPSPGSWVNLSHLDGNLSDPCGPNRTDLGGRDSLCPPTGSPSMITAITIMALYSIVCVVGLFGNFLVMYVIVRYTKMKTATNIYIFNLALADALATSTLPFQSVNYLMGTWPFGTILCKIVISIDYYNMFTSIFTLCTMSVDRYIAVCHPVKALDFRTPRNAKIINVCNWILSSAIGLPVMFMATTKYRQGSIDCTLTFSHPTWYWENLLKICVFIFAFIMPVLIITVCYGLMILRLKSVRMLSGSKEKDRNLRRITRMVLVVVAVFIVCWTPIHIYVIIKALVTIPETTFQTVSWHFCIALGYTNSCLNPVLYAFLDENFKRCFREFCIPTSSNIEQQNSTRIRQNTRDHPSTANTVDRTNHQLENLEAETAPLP
Sequence of Large T antigen (P03070 whole entry): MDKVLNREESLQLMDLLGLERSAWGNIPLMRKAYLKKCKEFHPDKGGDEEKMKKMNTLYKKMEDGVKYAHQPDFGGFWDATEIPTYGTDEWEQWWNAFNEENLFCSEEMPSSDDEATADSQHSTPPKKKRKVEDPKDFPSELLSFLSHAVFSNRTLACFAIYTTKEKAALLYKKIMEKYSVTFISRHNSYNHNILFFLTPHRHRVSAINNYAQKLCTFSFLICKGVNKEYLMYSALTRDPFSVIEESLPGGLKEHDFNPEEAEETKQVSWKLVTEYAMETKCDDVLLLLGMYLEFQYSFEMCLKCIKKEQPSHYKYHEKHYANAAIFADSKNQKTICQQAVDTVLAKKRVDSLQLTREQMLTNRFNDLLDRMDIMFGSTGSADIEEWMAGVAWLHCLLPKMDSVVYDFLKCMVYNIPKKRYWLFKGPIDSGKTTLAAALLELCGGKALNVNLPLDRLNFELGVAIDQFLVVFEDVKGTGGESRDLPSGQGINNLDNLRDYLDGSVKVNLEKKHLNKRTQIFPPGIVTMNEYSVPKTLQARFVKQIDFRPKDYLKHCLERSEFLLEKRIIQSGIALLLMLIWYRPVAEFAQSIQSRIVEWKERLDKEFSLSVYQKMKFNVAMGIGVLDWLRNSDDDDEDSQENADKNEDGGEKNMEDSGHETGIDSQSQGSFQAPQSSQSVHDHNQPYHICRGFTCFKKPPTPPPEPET
Sequence of Induced myeloid leukemia cell differentiation protein Mcl-1 (Q07820 whole entry): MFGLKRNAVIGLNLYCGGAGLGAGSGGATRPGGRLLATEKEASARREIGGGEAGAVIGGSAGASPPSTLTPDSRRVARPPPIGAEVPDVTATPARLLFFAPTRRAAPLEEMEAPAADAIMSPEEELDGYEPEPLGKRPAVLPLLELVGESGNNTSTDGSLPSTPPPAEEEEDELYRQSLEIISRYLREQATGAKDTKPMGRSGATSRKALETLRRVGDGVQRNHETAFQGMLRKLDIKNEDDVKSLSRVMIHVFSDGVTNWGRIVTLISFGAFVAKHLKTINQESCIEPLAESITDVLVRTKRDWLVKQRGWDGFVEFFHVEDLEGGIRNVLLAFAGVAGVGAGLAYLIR

Compound: N#Cc1c(NC(=O)C2CC(c3ccccc3Cl)=NO2)sc2c1CCC2 (stereo not given)
- IC50 (Phospholipase A2): 3.48 µM (active)
- IC50 (Cysteine protease ATG4B): 4.36 µM (active)

Compound: CCN(c1ccccc1)S(=O)(=O)c1ccc2[nH]c(=O)[nH]c2c1
- IC50 [1]: 24.9 µM (active)
- IC50 [2]: 3.89 µM (active)
- IC50 [3]: 33.8 µM (active)

Compound: O=c1oc2cc(O)ccc2s1 [TIOXOLONE]
- IC50 (Large T antigen): 19 µM (active)
- IC50 [1]: > 100 µM (inactive)
- IC50 [2]: 2.59 µM (active)
- EC50 [4]: 8.33 µM (active)
- EC50 (HEK293 [5]): > 59.6 µM (inactive)
- EC50 (HEK293 [6]): > 59.6 µM (inactive)

Compound: COC(=O)C1=CO[C@@H](C)[C@@H]2CN(CCc3c[nH]c4ccccc34)CC[C@H]12
- EC50 [7]: > 92.4 µM (inactive)
- EC50 (Mu-type opioid receptor): > 92.4 µM (inactive)
- EC50 [8]: > 92.4 µM (inactive)

Compound: CC[C@@]12C(=O)N(c3cccc(Br)c3)C(=O)N1[C@H](c1ccc(Cl)cc1)[C@@H]1C(=O)N(C3CCCCC3)C(=O)[C@@H]12
- CC50 [9]: > 50 µM (active)
- EC50 (HEK293 [5]): > 59.6 µM (inactive)
- EC50 (HEK293 [6]): > 59.6 µM (inactive)

Compound: COc1cccc(C(=O)Nc2ccc3c(c2)C(=O)c2ccccc2C3=O)c1
- EC50 [7]: > 92.5 µM (inactive)
- IC50 [10]: 6.16 µM (active)
- EC50 (Mu-type opioid receptor): > 92.5 µM (inactive)
- EC50 [8]: > 92.5 µM (inactive)
- IC50 [11]: 1.82 µM (active)

Compound: CCCN(Cc1ccccc1)C(S)=Nc1ccc(SC(F)F)cc1
- IC50 [12]: 18.1 µM (not active)
- AC50 (Escherichia coli): 41.9 µM (active)

Compound: CCc1nn(CCCC(=O)NCc2ccccc2Br)c(=O)c2cc3occc3n12
- EC50 (Streptococcus): > 150 µM (not active)
- EC50 (Streptokinase A): > 150 µM (not active)
- IC50 (Phospholipase A2): 20 µM (inactive)
- EC50 [13]: 1.12 µM (active)
- IC50 (Cysteine protease ATG4B): 16.8 µM (active)

Compound: CCOc1ccc(C2=CS/C(=C(\C#N)c3nnc4n3CCCCC4)N2CC)cc1
- IC50 (Phospholipase A2): 8.21 µM (active)
- IC50 (Cysteine protease ATG4B): 13 µM (active)

Compound: O=C1OCC(CO)(CO)N=C1NNc1ccc(Cl)c(Cl)c1
- IC50 [14]: 16.6 µM (active)
- AC50 [15]: 2.31 µM (active)
- EC50 (Beta-galactosidase): > 40 µM (inactive)

Compound: COc1ccc2nc3c(cc2c1)c(NC(=O)c1cccs1)nn3CC(C)C
- AC50 [16]: 0.43 µM (active)
- AC50 [17]: 4.21 µM (active)

Compound: Fc1ccc(N/N=C/c2ccncc2)c(F)c1
- AC50 [18]: 43.7 µM (active)
- AC50 [19]: 102 µM (active)

Compound: COc1cc(/C=C2\SC(=S)N(N3CCOCC3)C2=O)ccc1O
- IC50 [14]: > 40 µM (not active)
- EC50 (Beta-galactosidase): > 40 µM (inactive)

Compound: O=C(Nc1cccc(-c2nn[nH]n2)c1)c1ccc(Cl)s1
- AC50 [16]: 1.44 µM (active)

Compound: COc1ccc(NC(=O)/C(C#N)=C\C=C\c2ccco2)cc1
- AC50 [18]: 1.36 µM (active)
- AC50 [19]: 23.1 µM (active)

Compound: Cc1ccc(C(=O)COC(=O)c2cnccn2)cc1[N+](=O)[O-]
- IC50 [14]: 38.5 µM (not active)
- EC50 (Beta-galactosidase): > 40 µM (inactive)
